Results on 85 molecules are retold here after a melting point compilation (Tetko et al.; mined from patent text by program, amines drawn as free bases though some values may be those of a salt).

Some results are limits rather than exact numbers.

Regarding `COc1ccc(C=Cc2ccc(O)c(OC)c2)cc1`, the melting point (commonly the temperature, or range, at which the solid turns liquid) was 163 to 166 °C.

Take `N#CCCn1c2ccccc2c2cc([N+](=O)[O-])ccc21`: the melting point is 225 °C.

As for `COC(=O)CN1CCCC(Nc2ncc3ncnc(Nc4cccc(Br)c4)c3n2)C1` (stereo not given), the melting point stood at 113 °C. In turn, `Cc1ccc(NC(=O)N[C@@H]2N=C(c3ccccc3)c3ccccc3N(C)C2=O)cc1` yielded a melting point of 233 to 235 °C.

In turn, `CCOc1cc2cc(CO)c(CO)c(-c3ccnc(-n4ccc5ccccc5c4=O)c3)c2cc1OCC` registered a melting point of 131 to 134 °C. Under `CCCCc1ccc(OC)c(-c2csc(NC(=O)c3ccc(C(=O)N4CCC(N5CCC(NS(C)(=O)=O)C5)CC4)cc3)n2)c1` (stereo not given) stands 125 °C; under `COc1c(C)c(C)c(OC)c(CC[C@](C)(O)CO)c1C`, 82 to 84 °C; under `COc1cc(CC(=O)O)ccc1OCCNC(=O)C1Cc2ccccc2N1S(=O)(=O)c1ccc(-c2cc(C(F)(F)F)ccc2Cl)cc1` (stereo not given), 74 to 76 °C. Under `O=C(NC1CNC1=O)OCc1ccccc1` (stereo not given) stands 160 to 161 °C; under `O=C1Nc2ccc(Cl)cc2C(c2ccccc2)N1C1CCN(Cc2ccccc2)CC1` (stereo not given), above 230 °C.

Consider `OCC1OC(n2c(Cl)nc3cc(Cl)ccc32)C(O)C1O` (stereo not given), for which the melting point lay in the range of 102 to 150 °C.

The molecule `CCn1c(N)c(C(N)=O)c(=O)c2cnc(Nc3ccc(N4CCN(C(C)=O)CC4)cc3)nc21` registered a melting point of 179 °C. `Nc1cc2c(cc1N)OC(F)(Cl)C(F)(Cl)O2` (stereo not given) had a melting point of 130 to 131 °C.

`c1csc(-c2nc(CCOc3ccc(CCCn4ccnc4)cc3)co2)c1`: the melting point fell in the range of 77 to 78 °C.

The molecule `C[Si](C)(C)c1cc(-c2ccc(F)cc2)c(-c2ccc(F)cc2)o1` had a melting point of 82 to 83 °C. Under `FC(F)(F)C(Cc1ccccc1)(C(F)(F)F)C(F)(F)F` stands 32 to 33 °C; under `COC(=O)CCC(=O)OC1CC(C)(C)N(O)C(C)(C)C1`, 76 °C. For `COc1ccccc1[C@@]1(O)[C@H](O)CC(c2ccccc2)(c2ccccc2)[C@@H]2CN(C(=O)Cc3cccc4ccccc34)C[C@@H]21` (racemic) the value was 188 to 190 °C.

As for `CC(C)c1nc(CCOC2=CCCc3ccccc32)n(C)c1Sc1cc(Cl)cc(Cl)c1`, the melting point is 99 to 102 °C. For `CC(C)CCCC(C)C1CCC2C3CC=C4CC(OCCCCCCI)CCC4(C)C3CCC12C` (stereo not given) the value was 104 °C; for `CCOC(=O)C(=CNc1cccc(C(F)(F)F)n1)C(=O)OCC`, 125 to 128 °C. Molecule `CCn1cc(C(=O)O)c(=O)c2cc(F)c(C(C)=O)c(F)c21` showed a melting point of 250 to 251 °C. The molecule `Cn1c(=O)c2c(Cl)nccc2n(C)c1=O` showed a melting point of 220 °C.

Take `CCCCc1c[nH]c2cccc(SC)c2c1=O`: the melting point turned out to be 144 °C. `CC(C)(C)OC(=O)N1CCC(Oc2cccc3[nH]ccc23)C1` (stereo not given) had a melting point of 164 to 165 °C. For `COc1ccc(CNc2nc(COCC(=O)O)nc3sc4c(c23)CCCC4)cc1Cl` the value was 136 to 137 °C; for `CN(C)c1ccc(NC(=O)C2C(=O)C3CC[C@](C)(C2=O)C3(C)C)cc1` (stereo not given in full), 93 to 95 °C; for `Cc1nnc(F)c(-c2c(F)cc(F)cc2F)c1-c1ccc2ccccc2c1`, 108 to 110 °C. Under `CC(C)OC(=O)N1Cc2c(-c3ccc(F)cc3)ncn2-c2ccccc21` stands 160 °C. Molecule `NC(=O)CCc1ccc(CNC(=O)[C@@H](CCCNC(N)=N[N+](=O)[O-])NC(=O)C(c2ccccc2)c2ccccc2)cc1` displayed a melting point of 139 to 140 °C. For `O=C(Nc1ccc(C(F)(F)F)cc1)c1ccccc1NCc1ccncc1` the value was 171 to 175 °C. For `CC(C)=NNc1nc(C(Cl)(Cl)Cl)ns1` the value was 66 °C; for `CCOP(=O)(OCC)C(CCc1cc(C)nc2c(C#N)c(-c3ccccc3)nn12)P(=O)(OCC)OCC`, 107 °C. For `CCS(=O)(=O)N(C)[C@@H]1c2cc(C#N)ccc2OCC[C@H]1O` (relative stereo) the value was 142 to 144 °C. For `CCCN(CCC)C1Cc2cccc3nc(SC)n(c23)C1` (stereo not given), the melting point lay within 49 to 52 °C. Take `CCCCCS(=O)(=O)NC(=O)/C=C/c1ccc(OCCOC)cc1Oc1ncc(Cl)cc1Cl`: the melting point was 119 to 120 °C. Under `CC(C)(C)c1cc(C(=O)OCCc2ccc([N+](=O)[O-])cc2)cc(C(C)(C)C)c1O` stands 124 °C. For `CCOc1cc(OC(C)C)ccc1-c1nc(-c2ccc(OC(C)C)cc2O)nc(-c2ccc(OC(C)C)cc2O)n1` the value was 163 to 167 °C.

For the molecule `Clc1cccc(-c2nc(-c3ccc4c(c3)OCO4)c(-c3ccc4c(c3)OCO4)[nH]2)c1Cl`, the melting point was found to be 198 °C. For `CC(C)(Cn1c(CO)nc2c(N)nc3cccnc3c21)NC(=O)C1CCCCC1` the value was 230 to 232 °C; for `COC(=O)Cc1ccc(CN2CCN(C(c3ccccc3)c3ccccn3)CC2)cc1` (stereo not given), 122 to 123 °C; for `NCC1(O)c2ccccc2C=Cc2ccccc21`, 117 to 120 °C.

`O=C(CCN1CCOCC1)Nc1cc(-c2nnc(CCc3cccc(F)c3)o2)ccn1`: the melting point was in the range of 149 to 150 °C. For the molecule `CCCCCCCCCCCCCc1cc[nH]c1`, the melting point was in the range of 32.5 to 33.5 °C. As for `CCOC(=O)C1=C(N)NC2=C(C(=O)CCC2)C1c1ccccc1C#N` (stereo not given), the melting point worked out at 165 °C.

The molecule `CCOC(=O)C(Cc1ccc(C(F)(F)F)cc1)C(=O)c1ccc(F)cc1` (stereo not given) had a melting point of 56 to 57 °C.

`COC(=O)c1cccc(C(=O)OC)c1S(=O)(=O)NC(=O)Nc1nc(OC)cc(OC)n1` registered a melting point of 164 to 167 °C. Under `Nc1ccc2snc(-c3sccc3Cl)c2c1` stands 128 to 132 °C. For `COC(=O)c1cccc([N+](=O)[O-])c1NC(=O)OC(C)(C)C` the value was 92 to 94 °C; for `CN(C)CCCN=C1CC(c2ccc(Cl)c(Cl)c2)Cc2c1c(=O)c1cc(Cl)ccc1n2O` (stereo not given), 208 to 210 °C; for `CC(C)C(=O)n1cc(C(=O)C2CSC(c3cccnc3)N2)c2ccccc21` (stereo not given), 78 to 80 °C.

Consider `C=CCOC(=O)c1ccc(-c2nn(-c3ccc(C(=O)ON4C(=O)CCC4=O)cc3)c3ccccc23)cc1`, for which the melting point came to 178 °C. For `CCOc1cc(Cn2cc(CCC(=O)O)c(-c3ccccc3)c2)cc(OCc2nc(-c3ccccc3)oc2C)c1` the value was 126 to 127 °C; for `CC(C)Cc1nc2ccc(Br)cc2c(-c2ccccc2)c1CNC(=O)OC(C)(C)C`, 193 to 194 °C. `CC(C)(C)OC(=O)N1CCC(c2nc3cc(-c4ccc(C#N)cc4)ccc3o2)CC1` displayed a melting point of 137 to 141 °C. Under `CNC(=O)[C@@H]1C[C@H](SCc2ccc(OC)cc2)CN1` stands 53 to 54 °C; under `CCN(CC)CCOC(=O)C(C)(c1ccc(O)cc1)c1ccc(O)cc1`, 140 to 141 °C; under `Cc1nn(C)c2c1N=C(C1CC1)N1CC(C)N=C21` (stereo not given), 107 to 110 °C. Under `C#CCOc1ccc(C=NOC)cc1OC` stands 68 to 69 °C; under `CC(C)n1c(=O)n(C)c2cc(-c3ncc(C(F)(F)F)cc3Cl)ccc21`, 108 to 109 °C. Under `CCOC(=O)c1cn(Cc2ccccc2OC)c2sc(-c3ccc(OC)cc3)c(CBr)c2c1=O` stands 200 to 201 °C. Molecule `O=C(Nc1ccccc1N1CCOCC1)c1cccc2c1C(=O)c1ccccc1-2` registered a melting point of 154 to 156 °C. The molecule `O=C(O)CCSc1nnc(S)s1` showed a melting point of 105 to 108 °C. For `COC(=O)c1cscc1NC(=O)COc1ccc(-c2ccc(F)cc2)cc1` the value was 127 to 130 °C. Under `N=C(CC=O)c1ccccc1` stands 80 to 82 °C. For `CCCC(NS(=O)(=O)c1ccccc1)P(=O)(Oc1ccccc1)Oc1ccccc1` (stereo not given) the value was 173 to 175 °C; for `COC(=O)CC1CCCN(C(=O)c2ccc(N3CCCC3)cc2Cl)c2ccccc21` (stereo not given), 158 °C; for `O=C(N[C@@H](Cc1ccc(C(F)(F)F)cc1)[C@H](O)c1ccc(F)cc1)c1ccc(C(F)F)c2ccccc12`, 212 to 213 °C. In turn, `Cc1cc2c(cc1C)C(C(=O)O)SCC2=O` (single isomer, unassigned; (-)) displayed a melting point of 177 to 178 °C.

`Cc1cc(C)c(C)c(COc2ccccc2-c2ccoc2C(=O)NNC(=O)c2ccc(O)c(C#N)c2)c1C` came in with a melting point of 215 to 217 °C. Under `CC(C)(C)OC(=O)c1ncn2c1COc1ccccc1-2` stands 119 to 123 °C; under `CS(=O)(=O)Nc1cc(N)c([N+](=O)[O-])cc1OC1CCCCC1`, 136 to 137 °C. As to `CC(C)(C)OC(=O)Nc1ncc(-c2ccc(C#Cc3ccccc3)cc2)n1C(=O)OC(C)(C)C`, the melting point was 131 to 132 °C. Under `Cc1ccsc1C(=O)Cc1ccccc1[N+](=O)[O-]` stands 85 to 86.5 °C; under `CCOC(=O)c1c2n(c3cc(N4CCN(Cc5oc(=O)oc5C)CC4)c(F)cc3c1=O)C(C)S2` (stereo not given), 241 to 243 °C. Under `Nc1cccc2c(Br)cccc12` stands 65 to 66 °C; under `O=C(O)C1=Cc2ccc(Cl)cc2SC1C(F)(F)F` (stereo not given), 226 to 227 °C; under `Nc1ccc(C2Sc3ccccc3C=C2c2ccc3c(c2)NC(=O)CO3)cc1` (stereo not given), 186 to 189 °C. Under `COc1ccc(-c2nc(Cl)cc(N3CCN(C)CC3)n2)cc1` stands 88 to 90 °C; under `COc1ccc2c(Cl)cc(-c3ccc(C)cc3)nc2c1`, 129 to 131 °C. `CCc1cc(C(F)(C(F)(F)F)C(F)(F)F)cc(C)c1NC(=O)c1cccc(N)c1` yielded a melting point of 143 to 145 °C.

Molecule `CC1SC(c2cccnc2)N(C)C1=O` (stereo not given) registered a melting point of 66.5 to 68.5 °C. For `Cc1cccc(OC2CCOC2=O)c1[N+](=O)[O-]` (stereo not given) the value was 82 to 84 °C; for `O=c1c(O)cn(-c2ccccc2F)nc1-c1ccnn1-c1ccccc1`, 218 to 220 °C. For `CC(C)ON=C(c1cccc(O)c1)n1cncn1` the value was 160 to 163 °C.
